Laboratory results from patent US12624018B1, “Inhibitors of RIPK2 and medical uses thereof” (Odyssey Therapeutics, Inc., priority 2022, dated 2026).
pIC50: −log10 of the molar value. Like-named read-outs stand apart in the source and are kept apart here.

Legend:
RIPK2 enzyme = target: T1, RIPK2 enzyme (Homo sapiens, UniProt O43353); test: RIPK2 inhibition (ADP-Glo Kinase Assay); assay type: biochemical; conditions: RIPK2 5 nM, ATP 150 μM, MBP substrate, read-out: RIPK2 IC50
T1 construct: purchased Carna 09-128
T1 sequence (O43353 1-299 limits assumed): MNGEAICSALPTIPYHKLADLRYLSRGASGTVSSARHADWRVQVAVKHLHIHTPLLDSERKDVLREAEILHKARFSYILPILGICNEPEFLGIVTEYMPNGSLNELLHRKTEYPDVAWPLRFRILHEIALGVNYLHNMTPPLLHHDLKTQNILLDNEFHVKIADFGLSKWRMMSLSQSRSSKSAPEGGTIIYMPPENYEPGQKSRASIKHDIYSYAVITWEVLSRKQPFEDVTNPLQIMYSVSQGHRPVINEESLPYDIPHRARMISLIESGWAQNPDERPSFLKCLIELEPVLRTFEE
How it was run: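 Swine MBP substrate; compound and 5 nM RIPK2 first mixed for 30 min at room temperature; buffer pH 7.5 HEPES 50 mM with 10 mM MgCl2, 2 mM DTT, 1 mM EGTA, Brij-35, BSA.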

human NOD2 signaling = test: Inhibition of human NOD2 signaling in HEK-Blue-hNOD2 cells (L18-MDP stimulated, SEAP reporter); assay type: cell-based; conditions: NOD2 ligand stimulation, SEAP reporter, read-out: hNOD2 IC50
How it was run: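 Read-out is SEAP absorbance at 620 nm after 3 h QUANTI-Blue development of supernatant from HEK293 cells carrying NOD2 and a SEAP reporter (12500/well). Cells got compound (10 points, 3-fold dilutions) and 0.5 ng/mL L18-MDP for 24 h at 37 °C; percent inhibition vs stimulated/unstimulated controls, 4-parameter IC50.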

[1] = system: TNF-alpha secretion in human whole blood; test: Inhibition of TNF-alpha secretion in human whole blood (IFN-gamma primed, L18-MDP stimulated); assay type: cell-based; conditions: L18-MDP 100 ng/mL, read-out: Human Whole Blood TNFα IC50
Method: Materials: Assay medium consisted of RPMI 1640 medium (catalogue number: 11875119) and 10% heat inactivated FBS (Cytvia). U-PLEX Biomarker Assay (cat #K15067L-4) to detect levels of TNF-alpha was purchased from Meso Scale Discovery. Heparinized whole blood from healthy donors/volunteers was obtained through Research Blood Components, LLC.
Test compounds were prepared into a 10 mM DMSO solution and serially diluted into 9 points using a 3-fold dilution in a 96 well plate. A 10× working stock solution of recombinant human IFN-gamma (final concentration of 10 ng/mL) was prepared in assay medium and used to prepare a 10× solution of test compound. 20 μL of 10×IFN-gamma and test compound (or DMSO control) was added to a 96-well plate. 160 μL of heparinized whole blood obtained from healthy donors was dispensed into individual wells of the 96-well plate and placed on a plate shaker (150 rpm) and incubated for 60 min at 37° C. in a CO2 incubator. Subsequently, 20 μL of L18-MDP (final concentration of 100 ng/mL) was added to the appropriate wells and further incubated for 16 hours on a plate shaker (150 rpm) at 37° C. in a CO2 incubator. The final concentration of DMSO was 0.05% (v/v) in all wells. After incubation, 100 μL of DPBS was added per well, mixed by shaking at 500 rpm for 2 minutes, followed by centrifugation (400×g for 10 minutes) and collection of supernatants. TNF-alpha in supernatants was measured using MSD immunoassay (MesoScale Discovery). 4-parametric curve fit was used to determine the test compound concentration that results in 50% reduction of TNF-alpha concentration in supernatant relative to assay controls.

[2] = target: T2, RIPK2 and XIAP protein-protein interaction (Homo sapiens, UniProt O43353); test: Inhibition of the interaction of RIPK2 with XIAP (NanoBRET in HEK293T cells); assay type: cell-based; conditions: RIPK2 HaloTag / XIAP NanoLuc, read-out: NanoBRET Scaffolding IC50
T2 construct: the N-terminus of full-length RIPK2 was appended with the HaloTag fusion protein; expressed in transfected cells; host or cells: HEK293T
T2 sequence (O43353 whole entry, the tested form may be a part): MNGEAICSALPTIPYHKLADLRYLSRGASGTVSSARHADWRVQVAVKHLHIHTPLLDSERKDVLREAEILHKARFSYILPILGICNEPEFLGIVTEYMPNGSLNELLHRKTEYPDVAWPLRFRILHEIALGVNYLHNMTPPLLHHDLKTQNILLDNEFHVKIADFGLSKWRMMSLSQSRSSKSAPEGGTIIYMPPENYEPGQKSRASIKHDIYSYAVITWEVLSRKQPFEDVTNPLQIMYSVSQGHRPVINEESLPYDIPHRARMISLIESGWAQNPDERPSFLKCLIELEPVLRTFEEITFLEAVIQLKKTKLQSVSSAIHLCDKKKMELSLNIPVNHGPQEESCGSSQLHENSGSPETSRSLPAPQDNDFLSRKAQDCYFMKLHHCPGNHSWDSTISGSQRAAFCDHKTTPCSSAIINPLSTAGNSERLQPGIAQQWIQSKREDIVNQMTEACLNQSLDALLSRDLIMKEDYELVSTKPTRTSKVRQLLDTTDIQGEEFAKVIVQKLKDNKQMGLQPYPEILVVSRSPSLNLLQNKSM
How it was run: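 HEK293T cells transiently co-transfected with HaloTag-RIPK2 (N-terminal) and XIAP-NanoLuc (C-terminal) full-length fusions, grown 24 h at 37° C. in Opti-MEM with 4% FBS. Compounds tested as 10-point 3-fold dilutions; NanoBRET ratio taken as 618 nm acceptor over 460 nm donor emission.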

[3] = Homo sapiens, HEK-Blue hNOD2, HEK-Blue-hNOD2 cells

| pIC50 (RIPK2 enzyme) | pIC50 (human NOD2 signaling; [3]) | pIC50 ([1]; Homo sapiens, 16 h) | pIC50 [2] | pIC50 (human NOD2 signaling; HEK-Blue-hNOD2 cells) | pIC50 ([1]; 16 hours) | SMILES |
| --- | --- | --- | --- | --- | --- | --- |
| > 8.60 | 9.70 | 8.70 | 8.30 |  |  | Cc1c(Oc2ccnc3ccc(S(=O)(=O)C4CC4)cc23)ccc(CC(=O)Nc2cnn(C(C)(C)C)c2)c1F [Compound 174, N-(1-(tert-butyl)-1H-pyrazol-4-yl)-2-(4-((6-(cyclopropylsulfonyl)quinolin-4-yl)oxy)-2-fluoro-3-methylphenyl)acetamide] |
| > 8.60 | 8.80 | 7.74 | 7.36 |  |  | CC(C)(C)n1cc(NC(=O)Cc2cc(Cl)c(Oc3ccnc4ccc(S(C)(=O)=O)cc34)cc2F)cn1 [Compound 429, N-(1-(tert-butyl)-1H-pyrazol-4-yl)-2-(5-chloro-2-fluoro-4-((6-(methylsulfonyl)quinolin-4-yl)oxy)phenyl)acetamide] |
| > 8.60 |  |  | 8.52 | 9.70 | 8.15 | Cc1c(Oc2ccnc3ccc(S(=N)(=O)C4CC4)cc23)ccc(CC(=O)Nc2cnn(C(C)(C)C)c2)c1F (single isomer, unassigned) [Compound 442, N-(1-(tert-butyl)-1H-pyrazol-4-yl)-2-(4-((6-(cyclopropanesulfonimidoyl)quinolin-4-yl)oxy)-2-fluoro-3-methylphenyl)acetamide] |
